Test results published in US12370463B2, “Continuous-flow, well mixed, microfluidic crystallization device for screening polymorphs, morphologies and crystallization kinetics at controlled supersaturation” (THE BOARD OF TRUSTEES OF THE UNIVERSITY OF ILLINOIS, priority 2019, dated 2025).

Experiments:
Type in all cases: physicochemical
[1] = Polymorph and morphology screening of L-histidine in a batch 96 well plate, single injection
Excerpt: (§1) With eight different microfluidic mixers accommodated on a single chip, eight different supersaturations were studied for polymorph and morphology screening of L-histidine. The results of the continuous flow microfluidic crystallizer were further compared with a batch 96 well plate system with single injection of the solutions in a 96 well plate system. Supersaturation adjustments were done by either changing the initial concentration of the API solution and maintaining a constant ratio for the solvent and antisolvent (1:1) or varying the ratios of two mixing streams for constant initial concentration of API in the solvent. Ratios of solvent and antisolvent were controlled by controlling the flowrates of each stream, respectively.
A low supersaturation degree existed in the wells D, C, and H, where supersaturation was respectively 1.74, 1.14 and 1.15. For a medium range of the supersaturations, well B with S=2.28 and well G with S=2 were evaluated. The other three remaining wells, A, E and F represents the high supersaturation range with S=2.57, […], 3.14 respectively. Identical supersaturations for wells A to H were applied to a batch 96 well plate and optical images were collected after 5 and 30 minutes and shown in the micrographs A2 to H2 and A4 to H4.
In order to measure the growth rate for polymorphs of L-histidine at different supersaturations, time-lapsed images of each sample were taken each 60, 120 or 300 seconds after the crystals were first observed within the crystallization zone. […] To confirm the crystal faces, the crystallography of the polymorph B was imported into WINXMORPH and 3 final models were simulated for existing form B in the samples. The growth rate measurements of the form A crystals, however was done by measuring the distance between the two longest faces due to the significant aspect ratio of the two dominant faces of this crystal form. Using MATLAB (MATLAB 9.3, The MathWorks Inc.) the ratio of the polymorphic form A was measured for the eight samples in both continuous flow crystallizer as well as the batch 96 well plate system. […]

[2] = Polymorph and morphology screening of L-histidine by antisolvent crystallization in the continuous-flow multi-well microfluidic mixer; conditions: for polymorphic form obtained: water solvent, ethanol antisolvent, room temperature
Procedure: The L-histidine crystals were formed at room temperature with water as the solvent and ethanol as the antisolvent, wherein the microfluidic system was configured to have a cyclone-shaped geometry.
The multi-well microfluidic mixer device was placed on a temperature-controlled stage of the optical microscope (Olympus BX53M, Olympus America Inc.). A saturated solution of L-histidine in water was prepared for the solubility measurement experiment at room temperature.
Eight different syringes were filled with solutions of L-histidine in the water at known concentrations as the source of solvent streams and the other eight syringes were filled with ethanol as antisolvent streams. Syringes were then inserted into 4 programmed syringe pumps (NE-4000, New Era Pump System Inc.). Inlets were connected to one-way microfluidic check valves to prevent backflow inside the channels.
All the microscopic images were recorded with a built-in color camera (LC 30, Olympus America Inc.) using reflected light mode. Capturing time-lapsed images and the growth rate analysis was performed for different samples. Further, these images were processed through MATLAB (MATLAB 9.3, The MathWorks Inc.) for form percentage measurements. L-histidine has two polymorphic form with different crystal habits reported in the literature.
After benchmarking the merged inlet geometry and observing the consistency between the two discussed geometry, the multiwell screening system 10 generally shown in FIG. 4 and using the eight microfluidic chambers 100 having the merged inlet geometry of FIG. 5 was used to perform a parallel screening of L-histidine.
as §1
L-histidine with the two polymorphic forms of form A (stable) and form B (metastable) was selected for the parallel screening. The disclosed microfluidic system provides for the instantaneous, in-situ analysis of the polymorphic change. The studied supersaturations were divided into three regions of low, medium and high supersaturations to understand the effect of the supersaturation ratio on the polymorphic form ratios. […]

[3] = Antisolvent crystallization of o-ABA in the microfluidic mixer, merged and separated inlet designs
Excerpt: The crystals were formed at room temperature using ethanol as solvent and water as antisolvent. The microfluidic system was configured to have a cyclone-shaped geometry.
The microfluidic device was placed on the temperature-controlled stage of the optical microscope (Olympus BX53M, Olympus America Inc.). The o-ABA dissolved in ethanol and pure water was pumped separately into the microfluidic device using programmed syringe pumps (NE-4000, New Era Pump System Inc.). The flow rates of the o-ABA-ethanol solution and pure water were adjusted to achieve the desired supersaturations (S=1.2, 1.9, and 2.5), which were determined using the solubility curve of form I of o-ABA crystals. The inlets of the microfluidic device were connected with one-way check valves to avoid backflow from the mixer. The time-lapse images of the crystallization compartment were recorded using a built-in color camera (LC 30, Olympus America Inc.) of the optical microscope under the reflected light mode, which are also processed using MATLAB (MATLAB 9.3, The MathWorks Inc.) to measure growth rates and particle size distribution. The polymorphs of o-ABA at different supersaturations (S=1.2, 1.9, and 2.5) were identified using (i) distinct morphological features, such as form I having a prismatic morphology whereas form II has a needle-like morphology, and (ii) X-ray diffraction (XRD) experiments on a Bruker DISCOVER diffractometer with Cu Kα radiation.
The antisolvent crystallization of o-ABA was studied with a merged inlet design (FIG. 5) and results were compared with a separated inlet design. FIG. 11, panels A-H show the micrographs of the samples obtained from antisolvent crystallization of o-ABA in the ethanol-water mixture at two different supersaturations (S=1.2 and S=1.9). The relative relationship between the form and morphology of o-ABA allows for instant detection of each polymorph with the in-situ analysis.

Question: What does the source list for `N[C@@H](Cc1c[nH]cn1)C(=O)O` [L-histidine]?
Answer: crystal size distribution ([1]; batch 96 well plate): wide range of size distribution; polymorphic form obtained ([1]; high supersaturation, batch 96 well plate): a mixture of both polymorphic forms; growth rates of crystals over the time of the measurements ([1]; identical samples in the batch system): decrease significantly; crystal size distribution ([2]; continuous microfluidic mixer): more uniform and have a narrower size distribution; growth rates of crystals at similar supersaturation ([2]; continuous microfluidic mixer, time-lapsed images): almost constant; polymorphic form obtained ([2]; supersaturations below 2.3 (low and medium ranges)): a mixture of forms A and B; polymorphic form obtained ([2]; supersaturations higher than 2.3): only crystallizes in form B

Question: For `Nc1ccccc1C(=O)O` [o-ABA, o-aminobenzoic acid], which polymorphic form obtained ([3]; S=1.9, merged inlets geometry) is on record?
Answer: Its polymorphic form obtained is “metastable form II was obtained”.

Question: What about the “polymorphic transformation during the experiment” value ([3]; S=1.9, merged inlets geometry, constant supersaturation) of the same compound?
Answer: The value was “did not transform to the stable form”.

Question: And the polymorphic form obtained ([3]; lower supersaturations, ethanol-water mixture)?
Answer: The polymorphic form obtained was “crystals of polymorphic form I are obtained”.
